{"source": "paper PMC12389534", "about": "“Unlocking Therapeutic Potential of Novel Thieno-Oxazepine Hybrids as Multi-Target Inhibitors of AChE/BChE and Evaluation Against Alzheimer’s Disease: In Vivo, In Vitro, Histopathological, and Docking Studies” (Pharmaceuticals, 2025)", "key": {"[1]": {"molecular_target": "T1, AChE (Homo sapiens, UniProt P22303)", "T1 construct": "purchased BioVision K197-100", "T1 sequence (P22303 32-614)": "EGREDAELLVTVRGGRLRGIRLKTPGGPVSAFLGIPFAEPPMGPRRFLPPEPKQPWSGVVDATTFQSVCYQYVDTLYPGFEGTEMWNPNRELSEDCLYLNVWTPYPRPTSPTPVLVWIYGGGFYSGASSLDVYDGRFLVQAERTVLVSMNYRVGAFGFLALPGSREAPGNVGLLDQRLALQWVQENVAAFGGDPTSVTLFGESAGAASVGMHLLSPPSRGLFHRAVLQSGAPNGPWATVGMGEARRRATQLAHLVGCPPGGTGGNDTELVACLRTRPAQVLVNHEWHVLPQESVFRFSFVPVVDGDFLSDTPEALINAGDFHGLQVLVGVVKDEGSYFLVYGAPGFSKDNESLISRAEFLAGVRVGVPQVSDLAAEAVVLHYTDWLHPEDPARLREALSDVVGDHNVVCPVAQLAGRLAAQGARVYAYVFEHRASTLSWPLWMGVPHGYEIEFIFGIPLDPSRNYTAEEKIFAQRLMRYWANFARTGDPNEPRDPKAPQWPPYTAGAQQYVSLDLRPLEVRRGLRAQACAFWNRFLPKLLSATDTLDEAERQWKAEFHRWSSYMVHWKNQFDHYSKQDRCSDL", "assay": "biochemical", "conditions": "colorimetric kit, 412 nm", "procedure": "All newly created compounds were subjected to an AChE enzyme inhibitory screening. This was performed with the Colorimetric AChE Inhibitor Screening Kit (BioVision Catalog # K197-100). The 96-well assay kit provides a rapid, simple, and reliable way to screen for AChE inhibitors in large quantities. […] A completely transparent 96-well plate with a flat bottom was loaded with 10 µL of test inhibitors that were diluted (20×). […] A measure of 10 μL of diluted AChE was applied to each well that contained compounds, inhibitor control, and solvent control. […] Measures of 25 μL of AChE assay buffer, 5 μL of probe mix, and 10 μL of diluted AChE substrate were mixed to create the reaction mix. The reaction mix was mixed with the compound, enzyme control, and inhibitor control. […] The IC50 was calculated using nonlinear regression analysis using the response–concentration (log) curve."}, "[2]": {"test_system": "TNF-α", "assay": "Brain TNF-α level (ELISA)", "type": "in vivo, rat", "conditions": "AlCl3-induced AD rats", "procedure": "The brain tissues of the rats were removed and rigorously washed in isotonic saline 24 h after they were euthanized following the last behavioral test. For histological investigation, four brains per group were preserved for the whole night in 10% neutral buffered formalin. The remaining six brains were split into two sections each. In order to create a 10% homogenate (w/v), the first component was instantaneously homogenized using an ice-cold solution that included 300 mM sucrose and 50 mM Tris-HCl (pH 7.4). The homogenate was centrifuged at 1800× g for 10 min at 4 °C for biochemical tests, and the supernatant was thereafter kept at −20 °C. The second portion was set aside for use in RT-PCR analysis at −80 °C [94]. […]"}, "[3]": {"test_system": "BDNF", "assay": "Brain BDNF level (ELISA)", "type": "in vivo, rat", "conditions": "AlCl3-induced AD rats", "procedure": "(§1) The brain tissues of the rats were removed and rigorously washed in isotonic saline 24 h after they were euthanized following the last behavioral test. For histological investigation, four brains per group were preserved for the whole night in 10% neutral buffered formalin. The remaining six brains were split into two sections each. In order to create a 10% homogenate (w/v), the first component was instantaneously homogenized using an ice-cold solution that included 300 mM sucrose and 50 mM Tris-HCl (pH 7.4). The homogenate was centrifuged at 1800× g for 10 min at 4 °C for biochemical tests, and the supernatant was thereafter kept at −20 °C. The second portion was set aside for use in RT-PCR analysis at −80 °C [94].\n(§2) See Supplementary Information."}, "[4]": {"test_system": "BAX/Bcl-2", "assay": "BAX/Bcl-2 ratio of gene expression", "type": "in vivo, rat", "conditions": "AlCl3-induced AD rats", "procedure": "as §1, §2"}, "[5]": {"test_system": "HO-1", "assay": "HO-1 mRNA expression (RT-qPCR)", "type": "in vivo, rat", "conditions": "AlCl3-induced AD rats", "procedure": "as §1, §2"}, "[6]": {"test_system": "AlCl3-induced AD rat model", "assay": "Morris water maze (MWM) test in AlCl3-induced AD rats", "type": "in vivo", "in_short": "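Male Sprague Dawley rats, 300–320 g, trained in a 150 cm pool with opaque water (25 ± 2 °C) and a 10 cm platform 2 cm submerged. Four trials daily for three days, 60 s limit, 20 s on platform; escape latency recorded. Day-4 probe without platform, 60 s, time in target quadrant counted.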"}, "[7]": {"test_system": "TAC", "assay": "Brain TAC (colorimetric)", "type": "in vivo, rat", "conditions": "AlCl3-induced AD rats", "procedure": "as §1\nThe SOD enzyme activity was estimated using the Marklund et al. method, which is founded on the enzyme’s capacity to decrease the nitro blue tetrazolium dye at a wavelength of 540 nm. To evaluate the TAC, a colorimetric approach was employed to estimate the amount of hydrogen peroxide that remains after 3,5-dichloro-2-hydroxybenzene sulphonate is converted to a colored product at 660 nm."}, "[8]": {"test_system": "GSK3β", "assay": "GSK3β gene expression (RT-qPCR)", "type": "in vivo, rat", "conditions": "gene expression; AlCl3-induced AD rats; mean ± SE, n = 6", "procedure": "as §1, §2"}, "[9]": {"test_system": "TLR4", "assay": "TLR4 mRNA expression (RT-qPCR)", "type": "in vivo, rat", "parameters": "reduction of TLR4 mRNA expression: concentration or dose not given beside the values", "conditions": "AlCl3-induced AD rats", "procedure": "as §1, §2"}, "[10]": {"test_system": "Bcl-2", "assay": "Bcl-2 gene expression (RT-qPCR)", "type": "in vivo, rat", "conditions": "AlCl3-induced AD rats", "procedure": "as §1, §2"}, "[11]": {"test_system": "brain tissue (CC, ST, FD, SN neurons)", "assay": "Histopathological examination of brain tissue", "type": "in vivo, rat", "conditions": "brain sections, H&E; AlCl3-induced AD rats", "procedure": "as §1\nBrain tissue samples were stationed in 10% formalin for 24 h, washed with water, and then serially diluted with alcohol to induce dehydration. After being submerged in paraffin, the specimens were cut into segments that were 4 µm thick using a microtome."}, "[12]": {"test_system": "β-catenin", "assay": "Brain β-catenin level", "type": "in vivo, rat", "conditions": "AlCl3-induced AD rats", "procedure": "as §1, §2"}}, "note": "Entries after “also recorded” stand apart in the source; their conditions may differ.", "data": [{"smiles": "COc1ccc(N2CC(=O)Oc3sc4c(c3C2=O)CCCCC4)cc1", "note": "[Compound 16, 4-(4-Methoxyphenyl)-3,4,7,8,9,10-hexahydro-6H-cyclohepta[4,5]thieno[3,2-f][1,4]oxa-zepine-2,5-dione]", "values": [{"measurement": "IC50", "setting": "[1]", "result": "0.76 ± 0.03", "unit": "µM"}, {"measurement": "decline in TNF-α levels", "setting": "[2]", "result": 51.6, "unit": "%"}, {"measurement": "TNF-α (pg/g Tissue)", "setting": "[2]; mean ± SE, n = 6", "result": "85.17 ± 0.46 ^abc pg/g Tissue"}, {"measurement": "elevation of BDNF levels", "setting": "[3]", "result": 3.1, "unit": "fold"}, {"measurement": "BDNF (ng/mL)", "setting": "[3]; brain tissue, mean ± SE, n = 6", "result": "134.8 ± 0.01 ^abc ng/mL"}, {"measurement": "BAX/Bcl-2 Ratio", "setting": "[4]", "result": 9.75}, {"measurement": "elevation of HO-1 mRNA expression", "setting": "[5]", "result": 4.1, "unit": "fold"}, {"measurement": "HO-1", "setting": "[5]; mRNA expression in brain tissue, mean ± SE, n = 6", "result": "0.50 ± 0.020 ^abc"}, {"measurement": "increase in quadrant residence time", "setting": "[6]", "result": 3.6, "unit": "times"}, {"measurement": "Learning (s)", "setting": "[6]; escape latency, mean ± SE, n = 6", "result": "26.83 ± 1.2 ^abc s"}, {"measurement": "Memory (s)", "setting": "[6]; time spent in target quadrant, mean ± SE, n = 6", "result": "36.00 ± 1.27 ^abc s"}, {"measurement": "improvement of TAC levels", "setting": "[7]", "result": 4.4, "unit": "times"}, {"measurement": "TAC (µmol/g Tissue)", "setting": "[7]; brain tissue, mean ± SE, n = 6", "result": "42.42 ± 0.84 ^abc µmol/g Tissue"}, {"measurement": "GSK3β", "setting": "[8]", "result": "2.18 ± 0.10 ^abc"}, {"measurement": "reduction of TLR4 mRNA expression", "setting": "[9]", "result": 53.9, "unit": "%"}, {"measurement": "TLR4", "setting": "[9]; mRNA expression level, mean ± SE, n = 6", "result": "4.43 ± 0.08 ^abc"}, {"measurement": "upregulation of Bcl-2 gene expression", "setting": "[10]", "result": 5.2, "unit": "fold"}, {"measurement": "Bcl-2", "setting": "[10]; gene expression, mean ± SE, n = 6", "result": "0.63 ± 0.020 ^abc"}, {"measurement": "histopathological finding in CC, ST, FD and SN (NP = nuclear pyknosis)", "setting": "[11]", "result": "mild NP in neurons in CC, as well as moderate NP in neurons of ST, FD, and SN; also recorded: minor NP in the CC and significant NP in FD, ST, and SN"}, {"measurement": "elevation of β-catenin levels", "setting": "[12]", "result": 4.6, "unit": "fold"}, {"measurement": "β-Catenin (ng/L)", "setting": "[12]; mean ± SE, n = 6", "result": "7.34 ± 0.12 ^abc ng/L"}]}]}
